Where “and” joins values, the source holds several entries; their conditions need not be identical. Identical values can stand only once. Counter-ions that a name gives are not always drawn. Like-named read-outs stand apart in the source and are kept apart here.

The target of experiment [1] is β1 receptors, guinea pig right atria (Cavia porcellus, UniProt H0W3H1). The experiment can be described thus: cell-based. On the procedure: Each tissue was suspended between a fixed glass rod and a Statham Universal Transducer connected to a Beckman recorder. Atria were allowed to beat spontaneously under a loading tension of approximately 0.5 gm. Intrinsic depressant or stimulant activity was determined for each compound by progressively increasing concentrations in the tissue baths at 60-minute intervals. Tissues were not washed between increments. The maximum concentration showing little or no cardiodepressant activity was chosen for blockade experiments. Changes in rate in response to isoproterenol, a standard β-receptor agonist, were measured in the absence and presence of test compounds. Spiral strips of guinea pig trachea were suspended under 5 gm resting tension and incubated with phentolamine, tropolone and cocaine. Active tension was generated by addition of carbachol (3.0×10^-7 M) and decreases in tension in response to isoproterenol were quantitated. Cumulative concentration-response curves were produced with isoproterenol both before and after 60-minute incubation of test compounds with atria and trachea. […] The blocking potency of test compounds was estimated by computing pA2 values (-log KB) by the method of Furchgott, the Pharmacological Differentiation of Adrenergic Receptors, Ann. […] The degree of cardioselectivity was estimated from the ratio, KB trachea/KB atria (10^(pA2 atria-pA2 trachea)). A ratio greater than one indicates cardioselectivity. Test drugs were dissolved in distilled water and added to the bath (30 ml) in a volume of 10 or 100 μl.

Experiment [2] has as its system heart rate response to isoproterenol. Briefly: Duration and potency of beta-blocking action in vivo, 3-hour infusion in anesthetized dogs, isoproterenol challenge. The conditions noted are these: for Duration, time for 50% recovery from 50% blockade levels: Table IV, after infusion of drug, mean ± SEM; for Recovery Time 50%: 50% recovery from β-blockade after termination of infusion; for Recovery Time 80%: 80% recovery from β-blockade after termination of infusion; for % I, percent inhibition of heart rate response to isoproterenol: end of 3-hour infusion, isoproterenol 0.5 μg/kg. Further details: species or system dog. The method, then:
The duration of β-blockade was determined In vivo using pentobarbital-anesthetized dogs instrumented for measurement of heart rate using a Beckman cardiotachometer triggered electronically by a phasic aortic blood pressure signal. Both vagus nerves were served in the cervical region and the animals were mechanically ventilated. The experimental design used employed a 3-hour infusion of test compound. Bolus doses of isoproterenol (0.5 μg/kg) were used to assess the degree of β-blockade and recovery from β-blockade after […] of the infusion. The doses were spaced at 10-minute intervals and were given before, during and following the infusion of test compounds. The infusion rate was adjusted so that at the end of the 3-hour infusion period the degree of isoproterenol inhibition averaged about 50% of control. Following termination of blocker infusion, percent recovery from β-blockade was computed and the time associated with 80% recovery estimated.
^c Time in minutes for 50% recovery from 50% blockade levels after 3
Infusions of drug. Number of experiments is equal to or greater than thre
for each compound unless noted otherwise. Tabulated data are mean values
^c The betablocking activities were evaluated Invivo in a canine
model. The betablocker was infused in the animal for 3 hours with the dos
adjusted to give approximately 50%. blockage of the Isoproternolinduced
tachycardia. The infusion was then terminated and the time required for
80% recovery of blockade was recorded as duration of action of the
compound. The amount of drug infused during the 3 hours was averaged and
expressed as potency in ug/kg/min.

Experiment [3] has as its target β2 receptors, guinea pig trachea (Cavia porcellus, UniProt Q8K4Z4). Briefly: cell-based. On the procedure: Each tissue was suspended between a fixed glass rod and a Statham Universal Transducer connected to a Beckman recorder. Atria were allowed to beat spontaneously under a loading tension of approximately 0.5 gm. Intrinsic depressant or stimulant activity was determined for each compound by progressively increasing concentrations in the tissue baths at 60-minute intervals. Tissues were not washed between increments. […] Changes in rate in response to isoproterenol, a standard β-receptor agonist, were measured in the absence and presence of test compounds. Spiral strips of guinea pig trachea were suspended under 5 gm resting tension and incubated with phentolamine, tropolone and cocaine. Active tension was generated by addition of carbachol (3.0×10^-7 M) and decreases in tension in response to isoproterenol were quantitated. Cumulative concentration-response curves were produced with isoproterenol both before and after 60-minute incubation of test compounds with atria and trachea. […] The blocking potency of test compounds was estimated by computing pA2 values (-log KB) by the method of Furchgott, the Pharmacological Differentiation of Adrenergic Receptors, Ann. […] A ratio greater than one indicates cardioselectivity. Test drugs were dissolved in distilled water and added to the bath (30 ml) in a volume of 10 or 100 μl.

Experiment [4] concerns β-adrenergic receptors, guinea pig trachea vs right atria. Briefly: Cardioselectivity, KB trachea/KB atria. Type of experiment: cell-based. Particulars: 10^(pA2 atria-pA2 trachea); ratio greater than one indicates cardioselectivity.
Protocol: Each tissue was suspended between a fixed glass rod and a Statham Universal Transducer connected to a Beckman recorder. Atria were allowed to beat spontaneously under a loading tension of approximately 0.5 gm. Intrinsic depressant or stimulant activity was determined for each compound by progressively increasing concentrations in the tissue baths at 60-minute intervals. Tissues were not washed between increments. The maximum concentration showing little or no cardiodepressant activity was chosen for blockade experiments. Changes in rate in response to isoproterenol, a standard β-receptor agonist, were measured in the absence and presence of test compounds. Spiral strips of guinea pig trachea were suspended under 5 gm resting tension and incubated with phentolamine, tropolone and cocaine. Active tension was generated by addition of carbachol (3.0×10^-7 M) and decreases in tension in response to isoproterenol were quantitated. Cumulative concentration-response curves were produced with isoproterenol both before and after 60-minute incubation of test compounds with atria and trachea. […] The degree of cardioselectivity was estimated from the ratio, KB trachea/KB atria (10^(pA2 atria-pA2 trachea)). A ratio greater than one indicates cardioselectivity. Test drugs were dissolved in distilled water and added to the bath (30 ml) in a volume of 10 or 100 μl.
Where [5] appears, read: Table V, guinea pig right atria (B1), read-out: In Vitro pA2 Atria (converted).
Where [6] appears, read: Table IV, mean, n ≥ 2, range ≤ ± 0.2 units, read-out: pA2 Atria (converted).
The mark [7] stands for this setting: Table IV, mean, n ≥ 2, range ≤ ± 0.2 units, read-out: pA2 Trachea (converted).
Where [8] appears, read: Table IV, mean, n ≥ 2, range ≤ ± 0.2 units.
[9] abbreviates: Table VI, read-out: pA2 Atria (converted).
[10] abbreviates: Table I, guinea pig trachea, vs isoproterenol, -log KB, read-out: PA2 Trachea (converted).
The mark [11] stands for this setting: Table I, guinea pig right atria, vs isoproterenol, -log KB, read-out: PA2 Rt. Atria (converted).

Chain of β2 receptors, guinea pig trachea (Q8K4Z4 whole entry): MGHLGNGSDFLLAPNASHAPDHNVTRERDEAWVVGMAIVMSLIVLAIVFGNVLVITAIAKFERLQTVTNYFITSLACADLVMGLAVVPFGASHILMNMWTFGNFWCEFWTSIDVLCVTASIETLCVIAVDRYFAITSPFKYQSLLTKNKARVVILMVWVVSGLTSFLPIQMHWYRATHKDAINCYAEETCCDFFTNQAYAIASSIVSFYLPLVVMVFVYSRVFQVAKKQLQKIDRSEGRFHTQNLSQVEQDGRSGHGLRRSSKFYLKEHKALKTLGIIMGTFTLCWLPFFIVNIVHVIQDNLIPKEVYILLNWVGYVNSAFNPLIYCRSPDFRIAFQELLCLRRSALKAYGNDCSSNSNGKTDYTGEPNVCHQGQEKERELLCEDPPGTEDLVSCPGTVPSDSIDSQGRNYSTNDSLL
Chain of β1 receptors, guinea pig right atria (H0W3H1 1-470): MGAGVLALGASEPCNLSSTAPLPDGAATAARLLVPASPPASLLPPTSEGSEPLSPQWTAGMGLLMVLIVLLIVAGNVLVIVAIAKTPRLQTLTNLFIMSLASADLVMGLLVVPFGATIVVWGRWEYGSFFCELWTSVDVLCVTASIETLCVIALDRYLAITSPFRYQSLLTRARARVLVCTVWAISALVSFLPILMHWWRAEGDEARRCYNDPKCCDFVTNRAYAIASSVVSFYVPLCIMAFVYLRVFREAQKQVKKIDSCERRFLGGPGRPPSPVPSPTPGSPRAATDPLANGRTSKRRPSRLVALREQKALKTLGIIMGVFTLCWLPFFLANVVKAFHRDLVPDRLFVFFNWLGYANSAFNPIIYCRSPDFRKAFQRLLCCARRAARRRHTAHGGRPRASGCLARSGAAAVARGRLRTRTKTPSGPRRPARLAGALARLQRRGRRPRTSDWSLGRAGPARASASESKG

On to `CCOC(=O)CCc1nsnc1OCC(O)CNC(C)(C)CNC(=O)C(C)C` (stereo not shown) [No. 2 (Table V)], for which the Kb in experiment [1] (setting [5]) is 6.31 nM.

Take `CC(C)(C)NC[C@H](O)COc1nsnc1N1CCOCC1` [Timolol, reference compound]: in experiment [2], the “Duration, time for 50% recovery from 50% blockade levels” value (shortened to “Duration, time for 50% recovery”) is greater than 60 min.

As to `CCOC(=O)NCC(C)(C)NCC(O)COc1ccccc1C(=O)OCC` (stereo not shown) [Example 2], the figures for the Kb in experiment [1] (setting [6]) and in experiment [3] (setting [7]) were 5.01 nM and 10 nM, respectively.

In the case of `CCOC(=O)CCc1ccc(OCC(O)CNC(C)(C)CNS(=O)(=O)N(C)C)cc1` (stereo not shown) [No. 15 (Table IV)], in experiment [1] (setting [8]), the “pA2 Atria” value stood at 5.8. Moreover, the Kb in experiment [1] (setting [6]) was 1580 nM; in experiment [3] (setting [7]) it was 316 nM. Moreover, the “pA2 Trachea” value in experiment [3] (setting [8]) is 6.5.

For `CCOC(=O)CCc1ccc(OCC(O)CNCCNC(C)=O)cc1` (stereo not shown) [No. 9 (Table IV)], the figures for the Kb in experiment [1] (setting [6]) and in experiment [3] (setting [7]) were 501 nM and 316 nM, respectively. Moreover, the “Duration, time for 50% recovery” value in experiment [2] came to 10 ± 4 min.

`CCOC(=O)CCc1nsnc1OCC(O)CNCCNC(=O)Cc1ccccc1` (stereo not shown) [No. 6 (Table VI)]: the Kb in experiment [1] (setting [9]) is 79.4 nM.

Turning to `CCOC(=O)CCc1ccc(OCC(O)CNC(C)(C)CNS(=O)(=O)c2ccccc2)cc1` (stereo not shown) [No. 18 (Table IV)], the Kb was 501 nM in experiment [1] (setting [6]) and 251 nM in experiment [3] (setting [7]).

Turning to `CCOC(=O)CCc1ccc(OCC(O)CNCCNS(=O)(=O)N(C)C)cc1` (stereo not shown) [No. 16 (Table IV)], the “pA2 Atria” value in experiment [1] (setting [8]) is reported as 5.8. For the same compound, in experiment [3] (setting [8]), the “pA2 Trachea” value amounted to 5.7.

As for `CCOC(=O)CCc1ccc(OCC(O)CNCCNC(=O)C(C)C)cc1` (stereo not shown) [No. 10 (Table IV)], the Kb in experiment [1] (setting [6]) is 794 nM; in experiment [3] (setting [7]), 398 nM. For the same compound, in experiment [2], the “Duration, time for 50% recovery” value was determined as 6 ± 3 min.

Consider `CCOC(=O)CCc1ccc(OCC(O)CNC(C)(C)CNC(=O)C2CCCCC2)cc1` (stereo not shown) [No. 11 (Table IV)], for which the Kb in experiment [3] (setting [7]) was 398 nM.

As for `COC(=O)c1ccccc1OCC(O)CNC(C)(C)CNS(=O)(=O)c1ccccc1` (stereo not shown) [VIII, Methyl 2-[2-Hydroxy-3-[N-[1,1-dimethyl-2-(phenylsulfonylamino)ethyl]amino]proxy]benzoate Oxalate], the Kb in experiment [3] (setting [10]) was 1.58 nM. Moreover, in experiment [2] (Table II), the “Recovery Time 50%” value was determined as 26 ± 6 min; the “Recovery Time 80%” value is greater than 60 min; the “% I, percent inhibition of heart rate response to isoproterenol” value (shortened to “% I, percent inhibition”) is on record as 74%.

Regarding `CCOC(=O)CCc1nsnc1OCC(O)CNC(C)CNC(C)=O` (stereo not shown) [No. 4 (Table VI)], in experiment [1] (setting [9]), the Kb is 100 nM.

Regarding `CCOC(=O)c1ccccc1OCC(O)CNCCNC(=O)C(C)C` (stereo not shown) [Example 1], the Kb was 3.16 nM in experiment [1] (setting [6]) and 20 nM in experiment [3] (setting [7]).

As for `CCOC(=O)CCc1nsnc1OCC(O)CNC(C)(C)CNC(=O)OCC` (stereo not shown) [No. 1 (Table VI)], the Kb in experiment [1] (setting [9]) was 63.1 nM.

As for `COC(=O)c1ccccc1OCC(O)CNCCNS(=O)(=O)c1ccc(C)cc1.O=C(O)C(=O)O` (stereo not shown) [Example VII, Methyl 2-[2-Hydroxy-3-[N-[2-[N-(4-methylphenylsulfonyl)amino]ethyl]amino]propoxy]benzoate Oxalate], in experiment [4], the “Cardioselectivity KB (Trachea)/KB (Atria)” value stood at 2. In addition, the Kb was 158 nM in experiment [1] (setting [11]) and 79.4 nM in experiment [3] (setting [10]).

As for `CCOC(=O)CCc1nsnc1OCC(O)CNCCNC(=O)C(C)C` (stereo not shown) [No. 1 (Table V)], the Kb in experiment [1] (setting [5]) is 100 nM.

For the compound `CCOC(=O)CCc1ccc(OCC(O)CNC(C)(C)CNC(=O)N2CCOCC2)cc1` (stereo not shown) [No. 19 (Table IV)], the Kb is 15.8 nM in experiment [1] (setting [6]) and 200 nM in experiment [3] (setting [7]). Also, the “Duration, time for 50% recovery” value in experiment [2] was 21 ± 4 min.

`CCOC(=O)CCc1nsnc1OCC(O)CNCCNC(C)=O` (stereo not shown) [No. 3 (Table VI)]: in experiment [1] (setting [9]), the Kb was 501 nM.

The compound `CC(C)NCC(O)COc1cccc2ccccc12` (stereo not shown) [Propranolol, reference compound] returned a Potency in experiment [2] (Table II, 3-hour infusion, dog) of 0.225 mg/kg/180 min. In addition, in experiment [2] (Table II), the “Recovery Time 50%” value is given as greater than 60 min; the “Recovery Time 80%” value is given as greater than 60 min; the “% I, percent inhibition” value is reported as 67 ± 6%. Besides, in experiment [2], the “Duration, time for 50% recovery” value is greater than 60 min.

On to `CCOC(=O)CCc1ccc(OCC(O)CNCCNC(=O)Cc2ccccc2)cc1` (stereo not shown) [No. 12 (Table IV)], for which the Kb in experiment [1] (setting [6]) is 31.6 nM; in experiment [3] (setting [7]) it was 1260 nM. The “Duration, time for 50% recovery” value in experiment [2] stood at 6 ± 4 min.

Consider `CCOC(=O)CCc1nsnc1OCC(O)CNCCNS(=O)(=O)N1CCOCC1` (stereo not shown) [No. 7 (Table VI)], for which the Kb in experiment [1] (setting [9]) was 794 nM.

On to `CCOC(=O)CCc1ccccc1OCC(O)CNCCNC(=O)C(C)C` (stereo not shown) [Example 6], for which the Kb was 63.1 nM in experiment [1] (setting [6]) and 20 nM in experiment [3] (setting [7]).

In the case of `CCOC(=O)CCc1ccc(OCC(O)CNC(C)(C)CNC(=O)OCC)cc1` (stereo not shown) [No. 14 (Table IV)], the Kb in experiment [1] (setting [6]) was 794 nM; in experiment [3] (setting [7]) it was 200 nM.

For the compound `CCOC(=O)c1ccccc1OCC(O)CNCCNS(=O)(=O)c1ccc(C)cc1` (stereo not shown) [Example 5], the Kb was 158 nM in experiment [1] (setting [6]) and 25.1 nM in experiment [3] (setting [7]).

`COC(=O)c1ccccc1OCC(O)CNC(C)(C)CNC(=O)N1CCOCC1` (stereo not shown) [Example VI, Methyl 2-[2-Hydroxy-3-[N-[1,1-dimethyl-2-(1-morpholinocarbonylamino)ethyl]amino]propoxy]benzoate Oxalate]: the Kb in experiment [1] (setting [11]) is less than 1 nM. Moreover, in experiment [2] (Table II), the “Recovery Time 50%” value is greater than 60 min; the “Recovery Time 80%” value is listed as greater than 60 min; the “% I, percent inhibition” value was 93% and 89%.

For `CCOC(=O)CCc1nsnc1OCC(O)CNC(C)(C)CNC(C)=O` (stereo not shown) [No. 5 (Table VI)], in experiment [1] (setting [9]), the Kb was 79.4 nM.

Consider `CCOC(=O)c1ccccc1OCC(O)CNCCNS(=O)(=O)N(C)C` (stereo not shown) [Example 4], for which the Kb was 39.8 nM in experiment [1] (setting [6]) and 20 nM in experiment [3] (setting [7]).

In the case of `CCOC(=O)CCc1nsnc1OCC(O)CNC(C)(C)CNC(N)=O` (stereo not shown) [No. 2 (Table VI)], the Kb in experiment [1] (setting [9]) is 39.8 nM.

On to `CCOC(=O)CCc1ccc(OCC(O)CNCCNS(=O)(=O)c2ccc(C)cc2)cc1` (stereo not shown) [No. 17 (Table IV)], for which the Kb in experiment [1] (setting [6]) was 1000 nM; in experiment [3] (setting [7]) it was 6310 nM.

For the compound `CCOC(=O)CCc1ccc(OCC(O)CNC(C)(C)CNC(N)=O)cc1` (stereo not shown) [No. 13 (Table IV)], the Kb is 1000 nM in experiment [1] (setting [6]) and 398 nM in experiment [3] (setting [7]). Besides, the “Duration, time for 50% recovery” value in experiment [2] was 12 ± 4 min.
